Laboratory results from ChEMBL document CHEMBL5143625, “Isolation, synthesis and bioactivity evaluation of isoquinoline alkaloids from Corydalis hendersonii Hemsl. against gastric cancer in vitro and in vivo” (Bioorg Med Chem, 2022).
Active and inactive are the calls of the source. The calls are words filed in the database; no cut-off is given here.

Experiments:
[1] = test system: MGC-803; assay: Antiproliferative activity against human MGC-803 cells assessed as reduction in cell viability after 24 hrs by MTT assay; type: functional, cell-based; conditions: MGC-803, 24 h
[2] = test system: GES1; assay: Antiproliferative activity against human GES1 cells assessed as reduction in cell viability after 24 hrs by MTT assay; type: functional, cell-based; conditions: GES1, 24 h
[3] = test system: HGC-27; assay: Inhibition of colony formation in human HGC-27 cells at 1 to 8 uM after 7 to 10 days by crystal violet staining based assay; type: functional, cell-based; conditions: dose 1-8 µM, time 7-10 day, DDE = dose-dependent effect
[4] = test system: HGC-27; assay: Antiproliferative activity against human HGC-27 cells assessed as EdU positive cells at 1 to 8 uM for 24 hrs by y EdU assay (reference value: 56.2%); type: functional; conditions: dose 1-8 µM
[5] = test system: MGC-803; assay: Inhibition of cell migration in human MGC-803 cells assessed as reduction in migration at 0.5 to 4 uM for 24 hrs by wound healing assay; type: functional, cell-based; conditions: dose 0.5-4 µM, DDE = dose-dependent effect
[6] = test system: HGC-27; assay: Inhibition of cell migration in human HGC-27 cells assessed as reduction in migration at 1 to 8 uM for 24 hrs by wound healing assay; type: functional, cell-based; conditions: dose 1-8 µM, DDE = dose-dependent effect
[7] = test system: MGC-803; assay: Inhibition of cell migration in human MGC-803 cells assessed as reduction in migration at 0.5 to 4 uM for 24 hrs by transwell migration assay; type: functional, cell-based; conditions: dose 0.5-4 µM, DDE = dose-dependent effect
[8] = test system: MGC-803; assay: Inhibition of cell invasion in human MGC-803 cells assessed as reduction in invasion at 0.5 to 4 uM for 24 hrs by transwell invasion assay; type: functional, cell-based; conditions: dose 0.5-4 µM, DDE = dose-dependent effect
[9] = test system: HGC-27; assay: Inhibition of cell invasion in human HGC-27 cells assessed as reduction in invasion at 1 to 8 uM for 24 hrs by transwell invasion assay; type: functional, cell-based; conditions: dose 1-8 µM, DDE = dose-dependent effect
[10] = test system: HGC-27; assay: Down regulation of MMP9 expression in human HGC-27 cells at 2 to 16 uM after 24 hrs by western blot analysis; type: functional, cell-based; conditions: dose 2-16 µM, DDE = dose-dependent effect
[11] = test system: MGC-803; assay: Induction of cell cycle arrest in human MGC-803 cells assessed as cells accumulation at G2/M phase at 1.25 to 10 uM after 48 hrs by propidium iodide staining based flow cytometric analysis(reference value: 13.1%); type: functional; conditions: dose 1.25-10 µM
[12] = test system: MGC-803; assay: Induction of apoptosis in human MGC-803 cells assessed as increase in twin-kiling cell nuclei at 1.25 to 10 uM by Hoechst 33342 staining based fluorescent microscopic analysis; type: functional; conditions: dose 1.25-10 µM
[13] = test system: HGC-27; assay: Induction of apoptosis in human HGC-27 cells assessed as increase in twin-kiling cell nuclei at 2 to 16 uM by Hoechst 33342 staining based fluorescent microscopic analysis; type: functional; conditions: dose 2-16 µM
[14] = test system: MGC-803; assay: Induction of apoptosis in human MGC-803 cells assessed as increase in apoptotic cells at 1.25 to 10 uM after 48 hr by AnnexinV-FITC/PI staining based flow cytometric analysis (reference value: 2.71%); type: functional, cell-based; conditions: dose 1.25-10 µM, DDE = dose-dependent effect
[15] = test system: HGC-27; assay: Induction of apoptosis in human HGC-27 cells assessed as increase in apoptotic cells at 2 to 16 uM after 48 hr by AnnexinV-FITC/PI staining based flow cytometric analysis (reference value: 5.03%); type: functional, cell-based; conditions: dose 2-16 µM, DDE = dose-dependent effect
[16] = test system: HGC-27; assay: Induction of mitochondrial membrane potential loss in human HGC-27 cells assessed as TMRE positive cells at 2 to 16 uM by TRME staining based flow cytometric analysis (reference value: 5.8%); type: functional, cell-based; conditions: dose 2-16 µM, DDE = dose-dependent effect
[17] = test system: MGC-803; assay: Induction of apoptosis in human MGC-803 cells assessed as reduction in BCl2 expression at 1.25 to 10 uM by western blot analysis; type: functional, cell-based; conditions: dose 1.25-10 µM, DDE = dose-dependent effect
[18] = test system: HGC-27; assay: Induction of apoptosis in human HGC-27 cells assessed as reduction in BCl2 expression at 2 to 16 uM by western blot analysis; type: functional, cell-based; conditions: dose 2-16 µM, DDE = dose-dependent effect
[19] = test system: MGC-803; assay: Induction of apoptosis in human MGC-803 cells assessed as decrease in cytochrome C expression at 1.25 to 10 uM by western blot analysis; type: functional, cell-based; conditions: dose 1.25-10 µM, DDE = dose-dependent effect
[20] = test system: MGC-803; assay: Induction of apoptosis in human MGC-803 cells assessed as increase in cleaved caspase-9 expression at 1.25 to 10 uM by western blot analysis; type: functional, cell-based; conditions: dose 1.25-10 µM, DDE = dose-dependent effect
[21] = test system: HGC-27; assay: Induction of apoptosis in human HGC-27 cells assessed as increase in cleaved caspase-9 expression at 2 to 16 uM by western blot analysis; type: functional, cell-based; conditions: dose 2-16 µM, DDE = dose-dependent effect
[22] = test system: MGC-803; assay: Induction of ROS generation in human MGC-803 cells at 1.25 to 10 uM by DCFH-DA staining based fluorescence microscopic analysis; type: functional, cell-based; conditions: dose 1.25-10 µM, DDE = dose-dependent effect
[23] = test system: MGC-803; assay: Inhibition of PI3K/AKT/mTOR signalling pathway in human MGC-803 cells assessed as reduction in PI3K phosphorylation at 1.25 to 10 uM by western blot analysis; type: cell-based; conditions: dose 1.25-10 µM, DDE = dose-dependent effect
[24] = test system: HGC-27; assay: Inhibition of PI3K/AKT/mTOR signalling pathway in human HGC-27 cells assessed as reduction in PI3K phosphorylation at 2 to 16 uM by western blot analysis; type: cell-based; conditions: dose 2-16 µM, DDE = dose-dependent effect
[25] = test system: MGC-803; assay: Inhibition of PI3K/AKT/mTOR signalling pathway in human MGC-803 cells assessed as reduction in AKT phosphorylation at 1.25 to 10 uM by western blot analysis; type: cell-based; conditions: dose 1.25-10 µM, DDE = dose-dependent effect
[26] = test system: HGC-27; assay: Inhibition of PI3K/AKT/mTOR signalling pathway in human HGC-27 cells assessed as reduction in mTOR phosphorylation at 2 to 16 uM by western blot analysis; type: cell-based; conditions: dose 2-16 µM, DDE = dose-dependent effect
[27] = organism: Homo sapiens; assay: Inhibition of DNA topoisomerase 1 (unknown origin) assessed as relaxation of supercoiled plasmid pBR322 DNA at 12.5 to 100 uM incubated for 30 mins by agarose gel electrophoresis; conditions: dose 12.5-100 µM
[28] = test system: HGC-27; assay: Inhibition of DNA topoisomerase 1 in human HGC-27 cells assessed as relaxation of supercoiled plasmid pBR322 DNA at 15 to 30 uM incubated for 30 mins by agarose gel electrophoresis; type: cell-based; conditions: dose 15-30 µM
[29] = Half life in Sprague-Dawley rat at 50 mg/kg, ip measured upto 24 hrs by LC-MS analysis; type: ADME, organism-based; conditions: in vivo
[30] = Tmax in Sprague-Dawley rat at 50 mg/kg, ip measured upto hrs by LC-MS analysis; type: ADME, organism-based; conditions: in vivo, time < 24 hrs
[31] = MRT(0 to t) in Sprague-Dawley rat at 50 mg/kg, ip measured upto 24 hrs by LC-MS analysis; type: ADME, organism-based; conditions: in vivo
[32] = test system: MGC-803; assay: Antitumor activity against human MGC-803 cells xenografted in immunodeficient nude mouse assessed as tumor weight at 50 mg/kg, ip administered for 3 weeks (reference value: 157.8 mg); type: functional
[33] = test system: MGC-803; assay: Antitumor activity against human MGC-803 cells xenografted in immunodeficient nude mouse assessed as increase in survival at 50 mg/kg, ip administered for 3 weeks; type: functional, organism-based
[34] = test system: MGC-803; assay: Antitumor activity against human MGC-803 cells xenografted in immunodeficient nude mouse assessed as reduction in tumor growth at 50 mg/kg, ip administered for 3 weeks relative to control; type: functional; conditions: MGC-803, 504 h, read-out: TGI
[35] = Toxicity in immunodeficient nude mouse xenografted with human MGC-803 cells assessed as reduction in body weight at 50 mg/kg, ip administered for 3 weeks relative to control; type: organism-based; conditions: in vivo, 504 h

IC50 [1]: 5.1 µM
inhibition [27]: Active
half-life [29]: 2.3 h
Tmax [30]: 2 h
MRT last at 24 h [31]: 3.3 h
SMILES: Oc1c(Cc2nccc3cc4c(cc23)OCO4)ccc2c1OCO2
IC50 [2]: 98.4 µM
inhibition [3]: Dde
Activity [4]: 20.8%
inhibition [5]: Dde
inhibition [6]: Dde
inhibition [7]: Dde
inhibition [8]: Dde
inhibition [9]: Dde
Activity [10]: Dde
Activity [11]: 54.4%
Activity [12]: 29.5%
Activity ([12]; DDE = dose-dependent effect): Dde
Activity [13]: 41.1%
Activity ([13]; DDE = dose-dependent effect): Dde
Activity [14]: Dde
Activity [15]: Dde
Activity [16]: Dde
Activity [17]: Dde
Activity [18]: Dde
Activity [19]: Dde
Activity [20]: Dde
Activity [21]: Dde
Activity [22]: Dde
inhibition [23]: Dde
inhibition [24]: Dde
inhibition [25]: Dde
inhibition [26]: Dde
inhibition [28]: Active
Activity [32]: 176.2 mg
Activity [33]: Active
inhibition in vivo at 50 mg/kg [34]: 63.8%
Activity [35]: Non-Toxic
